These results are taken from paper PMC2918268 (Biochemical pharmacology, 2010).

What all share (assay): cell-free TR-FRET co-activator peptide displacement
What all share (assay type): binding
What all share (details): read-out: EC50
(In general: TR-FRET usually uses a lanthanide donor and a delayed reading to cut background.)

The target in experiment [1] is T1, estrogen-related receptor α (ERRα) (Homo sapiens, UniProt P11474).
T1 sequence (P11474 193-423 limits assumed): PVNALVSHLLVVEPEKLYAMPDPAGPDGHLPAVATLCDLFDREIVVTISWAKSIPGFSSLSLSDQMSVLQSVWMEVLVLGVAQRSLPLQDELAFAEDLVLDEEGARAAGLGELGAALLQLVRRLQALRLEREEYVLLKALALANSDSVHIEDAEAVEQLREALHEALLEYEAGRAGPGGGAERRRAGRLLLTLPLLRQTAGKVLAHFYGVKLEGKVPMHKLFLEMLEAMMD

Experiment [2] concerns the target ERβ (Homo sapiens, UniProt Q92731).
Experiment [3] addresses T2, ERα (Homo sapiens, UniProt P03372).
T2 sequence (P03372 311-547 limits assumed): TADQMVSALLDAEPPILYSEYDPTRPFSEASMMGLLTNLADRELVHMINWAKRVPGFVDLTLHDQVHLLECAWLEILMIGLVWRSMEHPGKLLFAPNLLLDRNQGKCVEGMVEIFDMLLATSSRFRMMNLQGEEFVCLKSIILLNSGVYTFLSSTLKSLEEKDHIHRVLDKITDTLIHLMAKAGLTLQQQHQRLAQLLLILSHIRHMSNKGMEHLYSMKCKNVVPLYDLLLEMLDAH

Chain of ERβ (Q92731 264-498 limits assumed): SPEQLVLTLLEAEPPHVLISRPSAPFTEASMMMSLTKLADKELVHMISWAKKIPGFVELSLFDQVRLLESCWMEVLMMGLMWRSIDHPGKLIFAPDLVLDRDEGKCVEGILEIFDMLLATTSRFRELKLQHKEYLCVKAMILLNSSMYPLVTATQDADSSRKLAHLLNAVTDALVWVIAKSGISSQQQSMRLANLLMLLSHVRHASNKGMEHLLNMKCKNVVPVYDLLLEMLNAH

As for `C[C@@H]1Cc2cc(O)ccc2[C@H]2CC[C@]3(C)/C(=C/COCCN(C)C)CC[C@H]3[C@H]12` [SR16388, 21-[2-(N,N-dimethylamino)ethyl]oxy-7a-methyl-19-norpregna-1,3,5(10),17(20)-tetraen-3-ol], the figures for the IC50 in experiment [1], in experiment [2] and in experiment [3] were 700 ± 100 nM, 500 ± 200 nM and 200 ± 200 nM, respectively.
